Experimental data reported in the SangsterLogP compilation.

Row | SMILES | logP
1 | O=C(c1ccccc1)N1CCC(CF)C1 (stereo not given) | 1.4
2 | O=C(c1ccccc1)N1CCC(F)C1 (stereo not given) | 0.91
3 | O=C(Nc1ccccc1)C1CCCCC1 | 2.88
4 | O=C(c1ccccc1)N1CC2CCCC(C1)C2(F)F | 2.18
5 | O=C(c1ccccc1)N1CCC1 | 1.13
6 | O=C(Nc1ccccc1)C1CCCC(F)(F)C1 (stereo not given) | 2.72
7 | O=C(c1ccccc1)N1CC2COCC(C1)C2(F)F | 1.19
8 | O=C(Nc1ccccc1)C1CCCC1 | 2.68
9 | O=C(Nc1ccccc1)[C@@H]1C[C@@H]1CF | 1.88
10 | O=C(Nc1ccccc1)[C@H]1C[C@@H]2C[C@@H]2C1 | 2.87
11 | O=C(Nc1ccccc1)C1CCCC1(F)F (stereo not given) | 2.25
12 | O=C(c1ccccc1)N1CCCC(C(F)F)C1 (stereo not given) | 1.73
13 | C[C@@H]1C[C@H]1C(=O)Nc1ccccc1 | 2.42

Continued, values first:

Row | logP | SMILES
14 | 1.78 | O=C(N[C@H]1C[C@H](CF)C1)c1ccccc1
15 | 2.16 | O=C(NC1CCCCC1(F)F)c1ccccc1 (stereo not given)
16 | 2 | O=C(Nc1ccccc1)[C@H]1C[C@H](F)C1
17 | 2.16 | O=C(N[C@H]1C[C@H]1C(F)(F)F)c1ccccc1
18 | 2.2 | O=C(c1ccccc1)N1CC2CCC1(C(F)(F)F)C2 (stereo not given)
19 | 0.94 | O=C(c1ccccc1)N1CC(F)C1
20 | 1.64 | O=C(N[C@@H]1C[C@H]1C(F)F)c1ccccc1
21 | 1.97 | O=C(N[C@H]1C[C@H](C(F)F)C1)c1ccccc1
22 | 2.72 | O=C(NC1CCCCC1)c1ccccc1
23 | 1.26 | O=C(c1ccccc1)N1CC[C@@H](F)[C@H](F)C1
24 | 1.08 | O=C(c1ccccc1)N1C[C@@H](F)[C@H](F)C1
25 | 1.98 | O=C(N[C@H]1C[C@@H](C(F)F)C1)c1ccccc1
